Measured values taken from patent US20080194656A1, “Benzotriazole Derivatives as Cannabinoid Receptor Antagonists” (priority 2005, published 2008).

Key:
[1] = molecular target: T1, Cb-1 receptor stably expressed in CHO-K1 cells (Homo sapiens, UniProt P21554); assay: Cyclic AMP accumulation (HTRF cAMP assay, antagonism of CP55940); format: cell-based; details: forskolin and CP55940 (agonist), 30 min at 25° C.; for IC50: read-out: Example C2 cAMP (antagonism) pIC50 (converted)
T1 construct: host or cells: CHO-K1
T1 sequence (P21554 whole entry): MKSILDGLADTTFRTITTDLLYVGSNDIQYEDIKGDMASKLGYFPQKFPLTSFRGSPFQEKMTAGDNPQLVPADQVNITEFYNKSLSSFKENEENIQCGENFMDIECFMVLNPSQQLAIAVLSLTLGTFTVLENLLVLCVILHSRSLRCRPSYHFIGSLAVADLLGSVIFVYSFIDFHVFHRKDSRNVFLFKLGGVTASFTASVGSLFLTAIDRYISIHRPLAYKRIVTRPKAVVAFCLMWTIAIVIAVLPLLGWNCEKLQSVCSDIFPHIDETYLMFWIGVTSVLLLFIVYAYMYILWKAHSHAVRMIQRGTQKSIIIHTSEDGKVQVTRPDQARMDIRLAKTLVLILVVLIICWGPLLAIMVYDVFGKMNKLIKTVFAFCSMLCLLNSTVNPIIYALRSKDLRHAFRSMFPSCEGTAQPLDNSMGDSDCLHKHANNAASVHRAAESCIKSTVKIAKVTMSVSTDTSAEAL
Procedure: (§1) Human Cb-1 transfected CHO-K1 cells (Euroscreen; Cat # ES-110-C; hCB1-D1; accession n′ Swissprot X54937) were maintained as described previously (Felder et al., 1995 & 1998). For membrane preparation, cells were cultured in DMEM/Ham's F12 medium containing 10% (v/v) heat inactivated FCS, 100 U/ml penicillin and 100 μg/ml streptomycin, 100 μg/ml pyruvate and 292 μg/ml L-glutamine under 5% CO2 at 37° C. in roller bottles, with medium changed 3 times a week. When 90% confluent, cells collected by trypsinisation and re-seeded at 1:10 or 1:20 dilutions to fresh roller bottles. For measurement of cAMP formation, cells were cultured to 90% confluency in Falcon T175 flasks.
Using the commercially available dynamic homogenous time-resolved fluorescence cAMP assay, the cAMP measurements on CHO-K1 cells that stably express the Cb-1 receptor were performed. Cells were detached from flasks using 3 ml EDTA (0.04% (w/v) in PBS) and resuspended in PBS (without Ca^2+ and Mg^2+) and centrifuged at 500×g for 5 min. Cell pellet was resuspended in stimulation buffer (HBSS medium containing 1 mM IBMX, 5 mM Hepes, 10 mM MgCl2 and 0.1% (w/v) BSA) and were dispensed into a black 96 well plate at a cell density of 20000 cells per well. After 30 min at 25° C., an equal volume of stimulation buffer containing forskolin and CP55940 (agonist) and/or a Cb-1 antagonist was added to the cells. After 30 min incubation at 25° C., cAMP detection was performed by addition of an equal volume of cAMP-XL665 and anti-cAMP-cryptate conjugates. The plate was incubated for a further 60 min at 25° C. and then measured with Discovery (PerkinElmer N.V./S.A. Belgium).

[2] = molecular target: T2, Human Cb-1 receptor (transfected CHO-K1 cell membranes) (Homo sapiens, UniProt P21554); assay: Cb-1 competition receptor binding in cell membranes ([3H]CP55,940 displacement); details: 3H-CP55,940 0.5 nM, 1 hour at 25° C.; for IC50: read-out: Example C1 Binding pIC50 (converted)
T2 construct: host or cells: CHO-K1
T2 sequence (P21554 whole entry): as above
Procedure: as §1
Prior to membrane preparation, confluent cells were treated with 5 mM butyrate for 24 hours. Medium was aspirated and cells were scraped from bottles in 50 ml homogenization buffer consisting of 15 mM Tris-HCl, pH 7.4 containing 2 mM MgCl2, 0.3 mM EDTA and 1 mM EGTA. The cells were then centrifuged for 10 minutes at 1700×g at 4° C. and homogenized in 20 ml same buffer with an Ultra Turrax. The crude membrane pellet was collected by two consecutive centrifugation steps at 20,000×g for 10 min and for 20 min at 25,000×g respectively, separated by a washing/homogenization step in 10 ml homogenization buffer. Final cell pellets were resuspended in a volume of 6 ml/roller bottle in stock buffer consisting of 7.5 mM Tris-HCl, pH 7.4, containing 12.5 mM MgCl2, 0.3 mM EDTA, 1 mM EGTA and 250 mM sucrose. Protein content was assayed by the BioRad method (Bradford, 1976).
Competition binding assays were performed in triplicate in a final volume of 0.5 ml containing incubation buffer (50 mM Tris-HCl, pH 7.4 containing 2.5 mM EDTA and 0.5% (w/v) BSA), 50 μl ^3H-CP55,940 (0.5 nM final), 0.4 ml transfected CHO-K1 membrane proteins (60 μg/ml) in the presence or absence of test compound. Non-specific binding determined using 1 μM CP55,940. The samples were incubated for 1 hour at 25° C., being terminated by rapid filtration on GF/C filters presoaked in 0.1% polyethylenimine, using a Unifilter-96 Harvester (PerkinElmer N.V./S.A. Belgium). Filters were washed 6 times with cold washing buffer (50 mM Tris-HCl, pH 7.4 containing 0.1% BSA), plates air-dried overnight before bound [^3H]CP55,940 was measured by liquid scintillation counting using a TopCount NXT microplate scintillation counter (Packard BioScience/ PerkinElmer N.V./S.A. Belgium). IC50 values were determined by a single-site binding equation (GraphPad Prism, San Diego, Calif., U.S.A.).

[3] = system: food intake in rats and mice; assay: Feeding experiments, acute dose-response on food intake; format: in vivo; details: oral single dose, food intake 1 h after lights out
Procedure: Male Sprague Dawley rats (weighing 250-300 g at the time of experiment) were obtained from Charles River (Sulzfeld, Kisslegg, Germany). Male C57Bl/6J Rj mice (weighing 25-30 g at the time of experiments) were obtained from Janvier (Le Genest-St-Isle, France). All animals had free access to water and were individually housed under 12-h light:dark cycle (lights on at 22:00 h) and at a temperature of 19-22° C. and 35-40% humidity in Techniplast IVC cages adapted to fit external food hoppers. Rats and mice were fed a standard purified diet containing 10% kcal fat (Dyets, Inc. Bethlehem, USA; or Research diets, New Brunswick, N.J., USA). All experiments were carried out in accordance with the European Communities Council Directives (86/609/EEC) and were approved by the local ethical committee.
An acute dose-response analysis for each compound was performed. All rats and mice were randomly assigned and orally dosed with either vehicle (10% cyclodextran containing 0.9% (w/v) saline) or vehicle containing a single concentration of compound (0.16, 0.63, 2.50, 10.0, 40.0 mg/kg at 10 ml/kg) so that the average latency from time of drug administration and lights out was 45 minutes, with 6 animals per group. Food intake was measured 1, 2, 4, 6 and 24 hours after lights out.

[4] = molecular target: T2, Human Cb-1 receptor (transfected CHO-K1 cell membranes); assay: Cb-1 competition receptor binding in cell membranes ([3H]CP55,940 displacement); details: statement on the enantiomers of the racemate, no test named

Structure (SMILES) | Example C1 Binding pIC50 [2] | IC50 [2] [nM] | further results
CCCCn1nnc2ccc(C(c3ccc(Cl)cc3)n3cncn3)cc21 (stereo not drawn) [Compound 8] | 6.45 |  | Example C2 cAMP (antagonism) pIC50 [1]: 6.62
Clc1ccc([C@H](c2ccc3nnn(C4CCCCC4)c3c2)n2cncn2)cc1 (single isomer, unassigned) [Compound 1] |  | 8910 | Example C3 Food intake at 1 h ED50 [3]: >100 mg/kg
CC(c1ccccc1)n1nnc2ccc(C(c3ccc(Cl)cc3)n3ccnc3)cc21 (stereo not drawn) [Compound 11] | 5.67 |  | 
CC(C)CCn1nnc2ccc(C(c3ccc(Cl)cc3)n3ccnc3)cc21 (stereo not drawn) [Compound 4] |  | 933 | IC50 [1]: 339 nM
Clc1ccc(C(c2ccc3nnn(C4CCCCC4)c3c2)n2cncn2)cc1 (racemic) [Intermediate 7, 1H-Benzotriazole, 6-[(4-chlorophenyl)-1H-1,2,4-triazol-1-ylmethyl]-1-cyclohexyl-] |  | 288 | ED50 ([3]; po, 1 h, read-out: Example C3 Food intake at 1 h ED50): 3.28 mg/kg; IC50 [1]: 36.3 nM
Clc1ccc([C@H](c2ccc3nnn(C4CCCCC4)c3c2)n2cncn2)cc1 (single isomer, unassigned) [Compound 2, 1H-Benzotriazole, (−)-6-[(4-chlorophenyl)-1H-1,2,4-triazol-1-ylmethyl]-1-cyclohexyl-] |  | 141 | Example C3 Food intake at 1 h ED50 [3]: 2.69 mg/kg
Clc1ccc(C(c2ccc3nnn(Cc4ccccc4)c3c2)n2ccnc2)cc1 (stereo not drawn) [Compound 13] | 5.61 |  | 
CC(C)n1nnc2ccc(C(c3ccc(Cl)cc3)n3cncn3)cc21 (stereo not drawn) [Compound 7] | 6.69 |  | Example C2 cAMP (antagonism) pIC50 [1]: 6.9
Cn1nnc2ccc(C(c3ccc(Cl)cc3)c3nccs3)cc21 (stereo not drawn) [Compound 6] |  | 5370 | 
Clc1ccc([C@H](c2ccc3nnn(C4CCCCC4)c3c2)n2cncn2)cc1 [Compound 2, 1H-Benzotriazole, (−)-6-[(4-chlorophenyl)-1H-1,2,4-triazol-1-ylmethyl]-1-cyclohexyl-] |  |  | active as a CB1 modulator [4]: active
c1ccc(C(c2ccc3nnn(C4CCCCC4)c3c2)n2ccnc2)cc1 (stereo not drawn) [Compound 9] | 6.05 |  | Example C2 cAMP (antagonism) pIC50 [1]: 5.79
Clc1ccc(Cn2nnc3ccc(C(c4ccc(Cl)cc4)n4ccnc4)cc32)cc1 (stereo not drawn) [Compound 5] |  | 832 | IC50 [1]: 955 nM
CC(C)n1nnc2ccc(C(c3ccc(Cl)cc3)n3ccnc3)cc21 (stereo not drawn) [Compound 12] | 5.53 |  | 
Clc1ccc(C(c2ccc3nnn(-c4ccccc4)c3c2)n2ccnc2)cc1 (stereo not drawn) [Compound 10] | 6.28 |  | Example C2 cAMP (antagonism) pIC50 [1]: 6.38
